Active and inactive are the calls of the source. The rule behind the calls is not given here.
Assays:
[1] = Drug metabolism in human liver microsomes assessed as 3-dehydromitragynine formation at 1 uM incubated for 60 mins in presence of NADPH by LC-MS/MS analysis; assay type: ADME, Microsome; settings: 1 h
[2] = Stability in human liver microsomes assessed as half life at 1 uM incubated for 60 mins by LC-MS/MS analysis; assay type: ADME, Microsome; settings: 1 h
[3] = Drug metabolism in 129Sv6 mouse brain assessed as mitragynine pseudoindoxyl formation at 10 mg/kg, po measured after 15 mins by LC-MS/MS analysis; assay type: ADME, organism-based; settings: in vivo, 0.25 h
[4] = Drug metabolism in C57BL/6J mouse liver microsomes assessed as 3-dehydromitragynine formation at 1 uM incubated for 60 mins in presence of ketoconazole by LC-MS/MS analysis; assay type: ADME, Microsome; settings: 1 h
Mus musculus [5] = assay: Antinociceptive activity in DOR knock out 129Sv6 mouse at 10 mg/kg, po measured after 15 mins; assay type: functional, organism-based
[6] = Drug metabolism in human liver microsomes assessed as compound depletion at 1 uM incubated for 60 mins in absence of NADPH by LC-MS/MS analysis; assay type: ADME, Microsome; settings: 1 h
[7] = Drug concentration in C57BL/6J mouse plasma at 30 mg/kg, po measured after 24 hrs by LC-MS/MS analysis; assay type: ADME, organism-based; settings: in vivo, BLD = below limit of detection
[8] = Drug metabolism in 129Sv6 mouse liver microsomes assessed as mitragynine pseudoindoxyl formation at 1 uM incubated for 60 mins by LC-MS/MS analysis; assay type: ADME, Microsome; settings: 1 h
Mus musculus [9] = assay: Antinociceptive activity in po dosed C57BL/6J mouse model assessed as peak effect measured at 20 mins by radiant heat tail flick assay; assay type: functional
[10] = Drug metabolism in 129Sv6 mouse liver microsomes assessed as 3-dehydromitragynine formation at 1 uM incubated for 60 mins in presence of ketoconazole by LC-MS/MS analysis; assay type: ADME, Microsome; settings: 1 h
[11] = Stability in 129Sv6 mouse liver microsomes assessed as half life at 1 uM incubated for 60 mins by LC-MS/MS analysis; assay type: ADME, Microsome; settings: 1 h
Mus musculus [12] = assay: Antinociceptive activity in sc dosed 129Sv6 mouse model assessed as peak effect measured at 15 mins by radiant heat tail flick assay; assay type: functional; settings: 129Sv6, 0.25 h
Mus musculus [13] = assay: Antinociceptive activity in MOR knock out C57BL/6J mouse at 45 mg/kg, po measured after 20 mins; assay type: functional, organism-based
[14] = Drug metabolism in C57BL/6J mouse plasma assessed as 3-dehydromitragynine formation at ED80, po; assay type: ADME, cell-free
[15] = Drug metabolism in 129Sv6 mouse liver microsomes assessed as mitragynine pseudoindoxyl formation at 1 uM incubated for 60 mins in presence of ketoconazole by LC-MS/MS analysis; assay type: ADME, Microsome; settings: 1 h
Mus musculus [16] = assay: Antinociceptive activity in sc dosed C57BL/6J mouse model assessed as time required for peak effect at ED50 by radiant heat tail flick assay; assay type: functional
[17] = Drug metabolism in human liver microsomes assessed as mitragynine pseudoindoxyl formation at 1 uM incubated for 60 mins by LC-MS/MS analysis; assay type: ADME, Microsome; settings: 1 h
[18] = Drug metabolism in human S9 fractions assessed as 3-dehydromitragynine formation at 1 uM incubated for 60 mins in absence of NADPH by LC-MS/MS analysis; assay type: ADME, subcellular, S9 fraction; settings: s9, 1 h
[19] = Drug metabolism in human S9 fractions assessed as 3-dehydromitragynine formation at 1 uM incubated for 60 mins in presence of NADPH by LC-MS/MS analysis; assay type: ADME, subcellular, S9 fraction; settings: s9, 1 h
[20] = Drug metabolism in C57BL/6J mouse brain assessed as mitragynine pseudoindoxyl formation at 30 mg/kg, po measured after 8 hrs by LC-MS/MS analysis; assay type: ADME, organism-based; settings: in vivo
Cytochrome P450 3A = Cytochrome P450 3A (Mus musculus, UniProt O09158+Q64464+Q64481+Q9JMA7); assay: Metabolic stability in CYP3A KO C57BL/6J mouse liver microsomes assessed as CYP3A-mediated decomposition by measuring half life at 1 uM incubated for 60 mins in presence of ketoconazole by LC-MS/MS analysis; assay type: ADME, Microsome; settings: 1 h

For `CC[C@@H]1CN2CCc3c([nH]c4cccc(OC)c34)[C@@H]2C[C@@H]1/C(=C\OC)C(=O)OC`, the Drug metabolism [1] was “Metabolite_Detected”, the t1/2 [2] was 7.5 min and the Drug metabolism [3] was 180 nM. The Drug metabolism [4] was “Metabolite_Detected”, the Activity (Mus musculus [5]) was “Active” and the Drug metabolism [6] was “Metabolite_Notdetected”. The Cp [7] was “Bld”, the Drug metabolism [8] was “Metabolite_Detected” and the ED50 (Mus musculus [9]) was 6.25 mg/kg. The Drug metabolism [10] was “Metabolite_Detected”, the t1/2 [11] was 13.5 min and the ED50 (Mus musculus [12]) was 57.3 mg/kg. The Activity (Mus musculus [13]) was “inactive”, the Drug metabolism [14] was 0.037 µM and the Drug metabolism [15] was “Metabolite_Notdetected”. For the same compound, the Time (Mus musculus [16]) was 15 min, the Drug metabolism [17] was “Metabolite_Detected” and the Drug metabolism [18] was “Metabolite_Detected”. For the same compound, the Drug metabolism [19] was “Metabolite_Detected”, the Drug metabolism [20] was “Metabolite_Notdetected” and the t1/2 (Cytochrome P450 3A) was 25.2 min.
